Results reported in patent US10383871B2, “Azetidine derivatives” (Vernalis (R&D) Ltd, priority 2008, dated 2019).

Test: Plasma concentrations after oral administration in laboratory rats
Type: in vivo, rat

Row | plasma concentrations after oral administration | Compound
1 | high and prolonged plasma concentrations | O=C(Nc1cccnc1)N1CC(Oc2ccc(-c3ccccc3)cc2)C1 [Example 4, 3-(Biphenyl-4-yloxy)-azetidine-1-carboxylic acid pyridin-3-ylamide]
2 | high and prolonged plasma concentrations | COc1ccccc1-c1ccc(OC2CN(C(=O)Nc3cccnn3)C2)nc1 [Example 17, 3-[5-(2-Methoxy-phenyl)-pyridin-2-yloxy]-azetidine-1-carboxylic acid pyridazin-3-ylamine]
3 | high and prolonged plasma concentrations | O=C(Nc1cccnn1)N1CC(Oc2ccc(-c3ccccc3)cn2)C1 [Example 13, 3-(5-Phenyl-pyridin-2-yloxy)-azetidine-1-carboxylic acid pyridazin-3-ylamide]
4 | high and prolonged plasma concentrations | COCCOc1cccc(-c2ccc(OC3CN(C(=O)Nc4cccnn4)C3)nc2)c1 [Example 7, 3-{5-[3-(2-Methoxy-ethoxy)-phenyl]-pyridin-2-yloxy}-azetidine-1-carboxylic acid pyridazin-3-ylamide]
5 | high and prolonged plasma concentrations | O=C(Nc1cccnn1)N1CC(Oc2ccc(-c3ccccc3F)cn2)C1 [Example 18, 3-[5-(2-Fluoro-phenyl)-pyridin-2-yloxy]-azetidine-1-carboxylic acid pyridazin-3-ylamide]
